Patent publication US11512079B2, “Heterocycle substituted pyridine derivative antifungal agents” (Amplyx Pharmaceuticals, Inc., priority 2017, dated 2022)
Values after ≈ are worked out from the molar mass of the structure shown.

Tests used:
C. gattii WM276 = assay: Antifungal susceptibility testing, CLSI broth microdilution (Example 496/497); assay type: cell-based, Cryptococcus gattii; conditions: 50% reduction in fungal growth
Text: (§1) Isolates tested. C. neoformans strains H99, DUMC 118.00, DUMC 158.03 and C. gattii strains R272, and RSA-MW-3515 were obtained from Duke University. C. albicans 90028, A. fumigatus MYA3626, C. neoformans 14116, C. neoformans 76484 and the pathogenic Cryptococcus reference strains panel (ATCC MP-11) were obtained from American Type Culture Collection (ATCC, Manassas, Va., USA). The MP-11 panel consists of strains representing eight molecular types and three subtypes of C. neoformans and C. gattii.
(§2) Antifungal susceptibility testing. To establish antimicrobial activity, broth microdilution susceptibility testing was performed according to Clinical and Laboratory Standards Institute (CLSI) guidelines M27-A3 for yeasts and M38-A2 for molds. Compound 2 and analogs were first diluted in DMSO to obtain intermediate dilutions. These were further diluted in microtiter plates to obtain a final concentration of 2 to 0.002 μg/mL. 1 μl of DMSO was added to “No drug” control wells. The solutions were mixed on a plate shaker for 10 mins and plates incubated at 35° C. for 40 to 48 h (C. albicans, A. fumigatus) and 72 h (C. neoformans). The minimum concentration that led to 50% reduction in fungal growth as compared to the control (with the aid of a reading mirror) was determined as the minimum inhibitory concentration (MIC) for C. albicans and C. neoformans. The minimum concentration that led to shortening of hyphae as compared to hyphal growth in DMSO control wells was determined as the minimum effective concentration (MEC) for A. fumigatus (as read for echinocandins). The use of the MIC and MEC endpoints for Compound 2 against yeasts and molds, respectively has been described previously.

A. fumigatus MYA3626 = assay: as above; assay type: cell-based, Aspergillus fumigatus; conditions: MEC, shortening of hyphae, 40 to 48 h
Text: as §1, §2

[1] = test system: strains of C. neoformans and C. gattii; assay: Activity vs Cryptococcus, summary over the strains tested; assay type: cell-based, Cryptococcus neoformans and Cryptococcus gattii; conditions: panel of 18 isolates of C. neoformans and C. gattii
Text: The activity of Gwt1 inhibitors against susceptible and FLC non-susceptible/resistant strains.
as §1
Antifungal susceptibility testing. To establish antimicrobial activity, broth microdilution susceptibility testing was performed according to Clinical and Laboratory Standards Institute (CLSI) guidelines M27-A3 for yeasts and M38-A2 for molds. Compound 2 and analogs were first diluted in DMSO to obtain intermediate dilutions. These were further diluted in microtiter plates to obtain a final concentration of 2 to 0.002 μg/mL. 1 μl of DMSO was added to “No drug” control wells. The solutions were mixed on a plate shaker for 10 mins and plates incubated at 35° C. for 40 to 48 h (C. albicans, A. fumigatus) and 72 h (C. neoformans). The minimum concentration that led to 50% reduction in fungal growth as compared to the control (with the aid of a reading mirror) was determined as the minimum inhibitory concentration (MIC) for C. albicans and C. neoformans.

C. albicans 90028 = assay: Antifungal susceptibility testing, CLSI broth microdilution (Example 496/497); assay type: cell-based, Candida albicans; conditions: MIC, 50% reduction in growth, 40 to 48 h
Text: as §1, §2

[2] = test system: Candida tropicalis strains; conditions: cited from earlier work
C. neoformans H99 [3] = assay: Antifungal susceptibility testing, CLSI broth microdilution (Example 496/497); assay type: cell-based, Cryptococcus neoformans
Text: as §1, §2

[4] = mouse, in vivo; cited from earlier work
C. neoformans H99 [5] = assay: Synergy with FLC, standard microtiter checkerboard dilution; assay type: cell-based, Cryptococcus neoformans; conditions: synergy = FICI <0.5, MIC read at 50% inhibition
Procedure: Gwt1 inhibitors are synergistic with FLC. […] Importantly, no antagonism was observed.
as §2

strains of C. albicans = conditions: cited from earlier work
C. neoformans strain H99 = assay: Murine model of cryptococcal meningitis, Compound 1 alone and with FLC (no ABT), CD-1 mice; assay type: in vivo, Cryptococcus neoformans; conditions: Compound 1 390 mg/kg PO thrice daily or FLC 80 mg/kg/day IP, 7 days, n=10
Procedure: Treatment was initiated within 1 h after infection.
Mice were weighed daily and observed for acute and chronic adverse symptoms. […] Fungal burden data were log10 transformed and evaluated using Kruskal-Wallis tests with Dunn's Multiple Comparison Test for Post-hoc analysis (Prism 5; GraphPad Software, Inc., San Diego, Calif.).

[6] = test system: 46 strains of C. neoformans; conditions: global study; cited from earlier work
[7] = test system: C. neoformans US isolates; conditions: cited from earlier work

## Nc1ncccc1-c1cc(Cc2ccc(COc3ccccn3)cc2)no1 [Compound 2]
C. gattii WM276
  MIC C. gattii WM276: 0.125 µg/mL (≈ 0.349 µM)
A. fumigatus MYA3626
  MIC or MEC A. fumigatus MYA3626: 0.008 µg/mL (≈ 0.0223 µM)
[1]
  MIC90: 0.5 µg/mL (≈ 1.4 µM)
C. albicans 90028
  MIC or MEC C. albicans 90028: 0.008 µg/mL (≈ 0.0223 µM)
[2]
  strains with synergy with FLC: 9 of 10
C. neoformans H99 [3]; 50% reduction in fungal growth, 72 h, 35° C.
  MIC C. neoformans H99: 0.25 µg/mL (≈ 0.698 µM)
[4]
  half-life in mice: 1.40 to 2.75 h
C. neoformans H99 [5]
  FICI in combination with FLC: 0.37
Strains of C. albicans
  strains with synergy with FLC: 2 of 20

## OC(Cn1cncn1)(Cn1cncn1)c1ccc(F)cc1F [FLC, fluconazole]
C. gattii WM276; Cryptococcus gattii, WM276
  MIC: 1 µg/mL (≈ 3.27 µM)
C. neoformans H99 [3]; Cryptococcus neoformans, H99, 72 h, read-out: MIC C. neoformans H99
  MIC: 2 µg/mL (≈ 6.53 µM)
C. neoformans strain H99
  reduction in lung fungal burden vs untreated control, monotherapy: 1.30 log10 CFU/g

## OC(Cn1cncn1)(Cn1cncn1)c1ccc(F)cc1F [FUC]
[6]
  MIC90 versus 46 strains of C. neoformans: 4 µg/mL

## OC(Cn1cncn1)(Cn1cncn1)c1ccc(F)cc1F [fluconazole, Fluconazole]
C. neoformans strain H99
  reduction in brain fungal burden vs control group, monotherapy: 1.04 log10 CFU/g

## C[C@@H](c1nc(-c2ccc(C#N)cc2)cs1)[C@](O)(Cn1cncn1)c1cc(F)ccc1F [isavuconazole]
[6]
  MIC90 versus 46 strains of C. neoformans: 0.06 µg/mL

## CC(=O)N1CCN(c2ccc(OCC3COC(Cn4ccnc4)(c4ccc(Cl)cc4Cl)O3)cc2)CC1 (stereo not shown) [ketoconazole]
[7]
  MIC90 versus C. neoformans, US isolates: 0.06 µg/mL (≈ 0.113 µM)
